These are literature values, as cited in patent US11796546B2, “Methods for quantifying drug concentration in a prodrug composition” (GENZYME CORPORATION, priority 2019, dated 2023).

For data set [1], the system named is type 2 diabetes mellitus patients.

As to “HdSQGTFTSDLSKQK(γE-palmitate)ESKAAQDFIEWLKAGGPSSGAPPPS-NH2 [SAR425899]”, the in vivo clearance entry is “rapid in vivo clearance”. In addition, the “glycemic control and weight loss” value in data set [1] was “facilitate glycemic control and weight loss”.
